Laboratory results as given in publication PMC12190640 (2025).

Tested on: 37Cy3-74Cy5-riboSAM (RNA, riboswitch, Cy3-modified U at 37, Cy5-modified U at 74) GGGAAGAAAUAACAAUCAACGACGUAUCAUUGUGCCUCGCUUUCCGCGGGGCGAUAAGUCCUGAAGAAAGGGAUGAUAUGACAUAAGAACAUCGG
Assay: smFRET (TIRF)
Conditions: 50 mM Na+, 10 mM Tris-HCl pH 8.0, 25 °C, 0.5 mM SAM

binding (2 mM Mg2+, stable EFRET ~0.8 population 18.5% to 37.6%): yes | binding (no Mg2+, no significant structural transition, same at 0.05 mM Mg2+): weak
SMILES: C[S+](CC[C@H](N)C(=O)O)C[C@H]1O[C@@H](n2cnc3c(N)ncnc32)[C@H](O)[C@@H]1O (some centres unmarked)
